The experiment has as its target beta2-adrenergic receptors in A431 (Homo sapiens, UniProt P07550). Conditions: quiescent A431 cells; epinephrine gradient; responses resembled classical dose-dependent responses.

The values that follow come from patent publication US20100130829A1, “MATERIALS AND METHODS FOR DETECTING EARLY CELL MIGRATION EVENTS” (priority 2008, published 2010).

Sequence of beta2-adrenergic receptors in A431 (P07550 whole entry): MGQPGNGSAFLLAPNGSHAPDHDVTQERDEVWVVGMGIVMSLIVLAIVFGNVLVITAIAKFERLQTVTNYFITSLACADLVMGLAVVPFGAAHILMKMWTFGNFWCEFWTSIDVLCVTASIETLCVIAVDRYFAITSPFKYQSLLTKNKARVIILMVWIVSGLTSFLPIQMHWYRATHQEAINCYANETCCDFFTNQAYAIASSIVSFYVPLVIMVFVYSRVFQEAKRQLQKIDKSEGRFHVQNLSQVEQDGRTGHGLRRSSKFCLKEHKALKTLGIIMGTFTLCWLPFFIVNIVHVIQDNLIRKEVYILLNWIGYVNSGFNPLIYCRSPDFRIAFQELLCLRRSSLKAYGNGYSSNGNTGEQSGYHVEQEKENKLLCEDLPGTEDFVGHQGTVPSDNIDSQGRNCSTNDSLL
Description: Human epidermoid carcinoma A431 cells were obtained from American Type Cell Culture. A431 cells were grown in Dulbecco's modified Eagle's medium (DMEM) supplemented with 10% fetal bovine serum (FBS), 4.5 g/liter glucose, 2 mM glutamine, and antibiotics. For cell culture, ˜4×10^4 cells suspended in 6 μl the medium containing 10% FBS were injected into the chamber, and were cultured at 37° C. under air/5% CO2 until ˜95% confluency was reached (˜1 day). To prevent drying during the culture, the biosensor device was maintained within a petri dish with a cover, and extra cell medium within the dish. The cells were then subject to starvation with the medium without any FBS for overnight. […] The optical system allows one to collect the resonant image of whole sensor at the single cell.
Coming RWG imaging system was used for label-free biosensor cell assays. The imaging system is capable of high resolution imaging, with a spatial resolution of 6 microns in the direction perpendicular to the propagation path of the coupled light, a resolution of about 150 microns in the direction parallel to the propagation path of the coupled light. The cellular responses across the whole sensor were recorded in real time at each pixel (6 microns×6 microns). The cellular responses at defined locations or zones from the inlet to the outlet were averaged to generate location-dependent cellular responses. […]

In the case of `CNC[C@H](O)c1ccc(O)c(O)c1` [epinephrine], the “chemoattractant determination from location-dependent DMR responses” value is reported as “not a chemoattractant”.
